Experimental data from ChEMBL document CHEMBL6177981, “Bardoxolone Derivatives as Novel Pseudo-Natural Necroptosis Inhibitors by Destabilizing HSP90 Client Proteins” (J Med Chem, 2025).
Active and inactive are the calls of the source. No cut-off for these calls is given here.

Key:
RAW264.7 = assay: Anti-necroptotic activity in LZ-induced mouse RAW264.7 cells assessed as increase in cell viability preincubated with compound followed by LPS and Z-VAD-FMK stimulation and measured after 16 hrs by CellTiter-Lumi luminescent cell viability assay; type: functional, cell-based
Mus musculus = assay: Anti-necroptotic activity in TNFalpha/Z-VAD-FMK induced SIRS male C57BL/6J mouse model assessed as reduction in IL6 in lung at 5 to 10 mg/kg, po pre-administered with compound via gavage for 2 hrs followed by […] of Z-VAD-FMK stimulation for 15 mins with subsequent TNF-alpha stimulation for 1 hrs and re-current […] of Z-VAD-FMK stimulation and measured after 8 hrs post SIRS induction by ELISA; type: functional, organism-based; conditions: dose 5-10 mg/kg, time 10.0 hrs
[1] = biological target: T1, Receptor-interacting serine/threonine-protein kinase 1 (Homo sapiens) (UniProt Q13546); assay: Inhibition of RIPK1 phosphorylation in TSZ-induced human HT-29 cells at 10 uM preincubated with compound followed by Z-VAD-FMK, SM164 and TNFalpha stimulation and measured within 6 hrs by Western blot analysis relative to control; type: cell-based
T1 sequence (whole entry): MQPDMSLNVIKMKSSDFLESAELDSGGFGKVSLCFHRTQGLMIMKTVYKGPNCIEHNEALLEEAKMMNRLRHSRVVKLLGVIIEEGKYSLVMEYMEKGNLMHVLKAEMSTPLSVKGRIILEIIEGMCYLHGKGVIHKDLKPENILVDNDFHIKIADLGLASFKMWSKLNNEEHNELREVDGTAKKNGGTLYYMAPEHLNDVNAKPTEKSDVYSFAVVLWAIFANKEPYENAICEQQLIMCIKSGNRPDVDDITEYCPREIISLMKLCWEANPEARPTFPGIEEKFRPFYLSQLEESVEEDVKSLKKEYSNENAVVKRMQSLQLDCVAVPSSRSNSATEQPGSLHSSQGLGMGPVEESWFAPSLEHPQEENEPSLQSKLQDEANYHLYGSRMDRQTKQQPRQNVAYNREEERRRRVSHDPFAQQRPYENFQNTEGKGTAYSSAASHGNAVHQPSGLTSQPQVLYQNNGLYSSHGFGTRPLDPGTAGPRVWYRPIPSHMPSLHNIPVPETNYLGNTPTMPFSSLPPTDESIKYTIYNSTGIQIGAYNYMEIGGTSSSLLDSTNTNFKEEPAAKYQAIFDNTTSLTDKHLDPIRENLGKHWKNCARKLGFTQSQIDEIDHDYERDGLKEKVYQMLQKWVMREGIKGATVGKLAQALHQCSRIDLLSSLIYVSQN

[2] = Acute toxicity in male C57BL/6J mouse assessed as survival at 2 g/Kg, po measured within 72 hrs relative to control; type: organism-based; conditions: in vivo, 2000 mg/kg
HT-29 [3] = assay: Downregulation of RIPK3 protein level in human HT-29 cells at 3 to 6 uM incubated for 9 hrs by Western blot analysis; type: functional, cell-based; conditions: dose 3-6 µM
[4] = Acute toxicity in male C57BL/6J mouse assessed as hemorrhage in liver at 2 g/Kg, IG measured after 72 hrs by H and E staining based analysis; type: tissue-based; conditions: in vivo, po, 2000 mg/kg
HT-29 [5] = assay: Downregulation of RIPK1 protein level in human HT-29 cells at 6 uM preincubated with MG132 for 2 hrs followed by compound addition and measured after 9 hrs by Western blot analysis; type: functional, cell-based
[6] = AUC (0 to 24 hrs) in Sprague-Dawley rat at 10 mg/kg, IG measured after 24 hrs by LC-MS/MS analysis; type: ADME, organism-based; conditions: in vivo, po
[7] = Acute toxicity in male C57BL/6J mouse assessed as inflammatory cell infiltration in heart at 2 g/Kg, IG measured after 72 hrs by H and E staining based analysis; type: tissue-based; conditions: in vivo, po, 2000 mg/kg
HT-29 [8] = assay: Downregulation of MLKL protein level in human HT-29 cell supernatant at 6 uM measured after 9 hrs by Western blot analysis; type: functional, cell-based
[9] = Acute toxicity in male C57BL/6J mouse assessed as hemorrhage in spleen at 2 g/Kg, IG measured after 72 hrs by H and E staining based analysis; type: tissue-based; conditions: in vivo, po, 2000 mg/kg
HT-29 [10] = assay: Downregulation of EGFR expression in human HT-29 cells at 0.75 to 6 uM incubated for 9 hrs by Western blot analysis; type: functional, cell-based; conditions: dose 0.75-6 µM

Cn1ccc(-c2ccc(NC(=O)[C@]34CCC(C)(C)C[C@H]3[C@H]3C(=O)C=C5[C@@]6(C)C=C(C#N)C(=O)C(C)(C)[C@@H]6CC[C@@]5(C)[C@]3(C)CC4)cc2)n1
Activity (RAW264.7): Dose-dependent-effect
Activity (Mus musculus): Active
inhibition [1]: 100%
survival at 72 h [2]: 100%
Activity (HT-29 [3]): Active; Significant Effect Observed
Activity [4]: Non-toxic
Activity (HT-29 [5]): Active
AUC(0-t) at 24 h [6]: 1080 ng·h/mL
Activity [7]: Non-toxic
Activity (HT-29 [8]): Active
Activity [9]: Non-toxic
Activity (HT-29 [10]): Active
